Legend:
Type in all cases: in vivo
[1] = test system: Euphorbia heterophylla (EUPHO); experiment: herbicidal action with/without simulated rainfall after treatment, Euphorbia heterophylla; parameters: key: % damage vs untreated control: 0 = no damage, 100 = complete destruction; conditions: 180 g/ha lactofen, 1080 g/ha glyphosate; for herbicidal action against Euphorbia heterophylla (EUPHO): control without simulated rainfall, Example 13.1
Description: (§1) The enhancement of the rainfastness of glyphosate was determined via the herbicidal activity of the mixture comprising glyphosate and the respective rainfastness enhancing herbicidal component B as well as of the single herbicidal components in relation to simulated rainfall at different time intervals.
(§2) The evaluation of the damage caused by the method and the compositions the according to the present invention and the single herbicidal components was carried out using a scale from 0 to 100%, compared to the untreated control plots. Here, 0 means no damage and 100 means complete destruction of the plants of a respective weed or crop species.
(§3) The application was performed with a fixed spayer system with air pressurization and with a tank spray volume of two liters. The speed of the spray device over the plants was adjusted for a spray volume of 200 I/ha. The spray device was a spray barr with four nozzles from the type Teejet XR 11002VS with a space of 50 cm between each nozzle.
(§4) The application was performed at a weed stage of 6 to 8 leaves. After the application of the formulated herbicides the leaves were washed through rain of 20 mm using a fixed rain simulator system at following time interval: 15 min, 30 min, 1, 2, 3, 4 and 6 hours after treatment.

[2] = test system: Echinochloa colonum (ECHCO); experiment: herbicidal action with/without simulated rainfall after treatment, Echinochloa colonum; parameters: key: % damage vs untreated control; 0 = no damage, 100 = complete destruction; conditions: 180 g/ha lactofen, 1080 g/ha glyphosate; for herbicidal action against Echinochloa colonum (ECHCO): control without simulated rainfall, Example 12.1
Description: as §1, §2, §3, §4

[3] = test system: Brachiaria decumbens (BRADE); experiment: herbicidal action with/without simulated rainfall after treatment, Brachiaria decumbens; parameters: key: % damage vs untreated control; 0 = no damage, 100 = complete destruction; conditions: 180 g/ha lactofen, 1080 g/ha glyphosate; for herbicidal action against Brachiaria decumbens (BRADE): control without simulated rainfall, Example 14.1; for herbicidal action aaainst BRADE: simulated rainfall 30 min after treatment, Example 14.2; for herbicidal action against BRADE: simulated rainfall 6 hours after treatment, Example 14.3
Description: as §1, §2, §3, §4

SMILES: CCOC(=O)C(C)OC(=O)c1cc(Oc2ccc(C(F)(F)F)cc2Cl)ccc1[N+](=O)[O-] (stereo not drawn) [Lactofen, lactofen]
- herbicidal action against Euphorbia heterophylla (EUPHO) ([1]; 1 DAA): 9.66
- herbicidal action against Euphorbia heterophylla (EUPHO) ([1]; 2 DAA): 19
- herbicidal action against Euphorbia heterophylla (EUPHO) ([1]; 3 DAA): 37
- herbicidal action against Euphorbia heterophylla (EUPHO) ([1]; 7 DAA): 47
- herbicidal action against EUPHO ([1]; simulated rainfall 15 min after treatment, 1 DAA, Example 13.2): 20.66
- herbicidal action against EUPHO ([1]; simulated rainfall 15 min after treatment, 2 DAA, Example 13.2): 39
- herbicidal action against EUPHO ([1]; simulated rainfall 15 min after treatment, 3 DAA, Example 13.2): 40
- herbicidal action against EUPHO ([1]; simulated rainfall 15 min after treatment, 7 DAA, Example 13.2): 74.33
- herbicidal action against EUPHO ([1]; simulated rainfall 2 hours after treatment, 1 DAA, Example 13.3): 18
- herbicidal action against EUPHO ([1]; simulated rainfall 2 hours after treatment, 2 DAA, Example 13.3): 42
- herbicidal action against EUPHO ([1]; simulated rainfall 2 hours after treatment, 3 DAA, Example 13.3): 39
- herbicidal action against EUPHO ([1]; simulated rainfall 2 hours after treatment, 7 DAA, Example 13.3): 73.33
- herbicidal action against Echinochloa colonum (ECHCO) ([2]; 2 DAA): 61.66
- herbicidal action against Echinochloa colonum (ECHCO) ([2]; 3 DAA): 76.66
- herbicidal action against Echinochloa colonum (ECHCO) ([2]; 7 DAA): 75.33
- herbicidal action against ECHCO ([2]; simulated rainfall 15 min after treatment, 2 DAA, Example 12.2): 46.66
- herbicidal action against ECHCO ([2]; simulated rainfall 15 min after treatment, 3 DAA, Example 12.2): 57.66
- herbicidal action against ECHCO ([2]; simulated rainfall 15 min after treatment, 7 DAA, Example 12.2): 46.33
- herbicidal action against ECHCO ([2]; simulated rainfall 30 min after treatment, 2 DAA, Example 12.3): 53
- herbicidal action against ECHCO ([2]; simulated rainfall 30 min after treatment, 3 DAA, Example 12.3): 60
- herbicidal action against ECHCO ([2]; simulated rainfall 30 min after treatment, 7 DAA, Example 12.3): 46
- herbicidal action against ECHCO ([2]; simulated rainfall 2 hours after treatment, 2 DAA, Example 12.4): 48.33
- herbicidal action against ECHCO ([2]; simulated rainfall 2 hours after treatment, 3 DAA, Example 12.4): 63.33
- herbicidal action against ECHCO ([2]; simulated rainfall 2 hours after treatment, 7 DAA, Example 12.4): 39.33
- herbicidal action against Brachiaria decumbens (BRADE) ([3]; 1 DAA): 5
- herbicidal action against Brachiaria decumbens (BRADE) ([3]; 2 DAA): 9
- herbicidal action against Brachiaria decumbens (BRADE) ([3]; 3 DAA): 8.66
- herbicidal action against Brachiaria decumbens (BRADE) ([3]; 7 DAA): 14
- herbicidal action aaainst BRADE ([3]; 1 DAA): 5
- herbicidal action aaainst BRADE ([3]; 2 DAA): 18.33
- herbicidal action aaainst BRADE ([3]; 3 DAA): 24.66
- herbicidal action aaainst BRADE ([3]; 7 DAA): 26
- herbicidal action against BRADE ([3]; 1 DAA): 9.66
- herbicidal action against BRADE ([3]; 2 DAA): 16
- herbicidal action against BRADE ([3]; 3 DAA): 22.66
- herbicidal action against BRADE ([3]; 7 DAA): 25.33

Source: patent publication US20110105326A1, “Method for Enhancing the Rainfastness of Glyphosate” (BASF SE, priority 2008, published 2011)
